“And” between values parts separate entries of the source, which are not always exact repeats. Equal entries are not always repeated.
Test system: panel of 484 cancer cell lines
Assay: PRISM cancer cell line profiling, 5 days
Assay type: cell-based
Design: Viability: scale not given here; AUC: unit not given beside the values
Method: Cancer cell line profiling was performed using the Broad’s PRISM platform. Cell treatment and data analysis were performed as described in Yu et al[42]. Raw Luminex signal was converted to AUC values for each cell line as described. The resulting AUC profile for each compound was modeled against DepMap using the limma package in R[71]. Because hotspot mutation analysis was performed against DepMap, TP53 annotations in Fig. 6c,d are directly from DepMap.

[1] = CAL12T_LUNG, pert_dose 6.10E-04
[2] = CAL27_UPPER_AERODIGESTIVE_TRACT, pert_dose 6.10E-04
[3] = CAL29_URINARY_TRACT, pert_dose 6.10E-04

Structure (SMILES): COc1ccc(C2=N[C@@H](c3ccc(Cl)cc3)[C@@H](c3ccc(Cl)cc3)N2C(=O)N2CCNC(=O)C2)c(OC(C)C)c1 [Nutlin-3A]
- Viability (CAKI1_KIDNEY, pert_dose 6.10E-04): 1.281
- AUC (CAL12T_LUNG): 1.284
- MFI CAL12T_LUNG [1]: 11558 and 13284 and 9249.5 and 12951.5 and 13183
- Viability [1]: 1.338
- AUC (CAL27_UPPER_AERODIGESTIVE_TRACT): 1.085
- MFI CAL27_UPPER_AERODIGESTIVE_TRACT [2]: 20059.5 and 19151.5 and 25415 and 19627.5 and 22725.5
- Viability [2]: 1.031
- AUC (CAL29_URINARY_TRACT): 1.177
- MFI CAL29_URINARY_TRACT [3]: 9011 and 8957 and 10277.5 and 8231.5 and 10904
- Viability [3]: 1.551
- AUC (CAL51_BREAST): 1.0736
- MFI CAL51_BREAST (CAL51_BREAST, pert_dose 6.10E-04): 12828 and 10989 and 10227 and 16366 and 8548.5
- AUC (CAL54_KIDNEY): 1.148
- Viability (CAL54_KIDNEY, pert_dose 6.10E-04): 1.061
- AUC (CAL62_THYROID): 1.139
- MFI CAL62_THYROID (CAL62_THYROID, pert_dose 6.10E-04): 19352 and 23281.5 and 23347 and 21690 and 18079
- AUC (CAL78_BONE): 1.142
- AUC (CAL120_BREAST): 1.092
- MFI CAL120_BREAST (CAL120_BREAST, pert_dose 6.10E-04): 15064 and 12880 and 13041 and 15017 and 12012.5
- AUC (CALU1_LUNG): 0.9872
- AUC (CALU6_LUNG): 1.11
- MFI CALU6_LUNG (CALU6_LUNG, pert_dose 6.10E-04): 19804 and 26726 and 21267 and 25781.5 and 28928.5
- AUC (CAMA1_BREAST): 1.153
- MFI CAMA1_BREAST (CAMA1_BREAST, pert_dose 6.10E-04): 1412 and 1959.5 and 1768 and 1670.5 and 1819.5
- AUC (CAOV3_OVARY): 1.212
- MFI CAOV3_OVARY (CAOV3_OVARY, pert_dose 6.10E-04): 4238 and 2774 and 4113 and 2696.5 and 4069
- AUC (CAPAN2_PANCREAS): 1.279
- AUC (CCFSTTG1_CENTRAL_NERVOUS_SYSTEM): 0.9997
- MFI CCFSTTG1_CENTRAL_NERVOUS_SYSTEM (CCFSTTG1_CENTRAL_NERVOUS_SYSTEM, pert_dose 6.10E-04): 2625 and 1957.5 and 2163 and 2860 and 1678.5
- AUC (CFPAC1_PANCREAS): 1.133
- MFI CFPAC1_PANCREAS (CFPAC1_PANCREAS, pert_dose 6.10E-04): 12988 and 12890.5 and 8831 and 16982.5 and 13585.5
- AUC (CHL1_SKIN): 1.101
- MFI CHL1_SKIN (CHL1_SKIN, pert_dose 6.10E-04): 25277 and 22527.5 and 16250 and 20018.5 and 22530
- AUC (CJM_SKIN): 1.181
- MFI CJM_SKIN (CJM_SKIN, pert_dose 6.10E-04): 9757.5 and 5484 and 9139.5 and 7090.5 and 8423
- AUC (CL34_LARGE_INTESTINE): 1.025
- MFI CL34_LARGE_INTESTINE (CL34_LARGE_INTESTINE, pert_dose 6.10E-04): 3669 and 4269 and 5343.5 and 2751 and 2702
- AUC (COLO668_LUNG): 1.1
- AUC (COLO679_SKIN): 0.88
- MFI COLO679_SKIN (COLO679_SKIN, pert_dose 6.10E-04): 6568.5 and 8262 and 8427 and 10413 and 7461
- AUC (COLO680N_OESOPHAGUS): 1.159
- MFI COLO680N_OESOPHAGUS (COLO680N_OESOPHAGUS, pert_dose 6.10E-04): 5933.5 and 4468 and 6131 and 5620 and 4657
- AUC (COLO741_SKIN): 1.078
- MFI COLO741_SKIN (COLO741_SKIN, pert_dose 6.10E-04): 3302 and 2497 and 3485 and 3755 and 2923
- AUC (COLO783_SKIN): 1.125
- MFI COLO783_SKIN (COLO783_SKIN, pert_dose 6.10E-04): 9292.5 and 11134.5 and 11660 and 10125 and 10684
- AUC (COLO792_SKIN): 0.8537
- MFI COLO792_SKIN (COLO792_SKIN, pert_dose 6.10E-04): 5216 and 3883.5 and 6906 and 3698 and 6181
- AUC (COLO800_SKIN): 0.9456
- MFI COLO800_SKIN (COLO800_SKIN, pert_dose 6.10E-04): 9562 and 9966.5 and 9539 and 8965 and 10824
- AUC (CORL23_LUNG): 1.082
- MFI CORL23_LUNG (CORL23_LUNG, pert_dose 6.10E-04): 18251 and 21912.5 and 23721 and 22738.5 and 19507.5
- AUC (CORL105_LUNG): 0.9293
- MFI CORL105_LUNG (CORL105_LUNG, pert_dose 6.10E-04): 3831.5 and 2259.5 and 3159 and 2363.5 and 2088.5
- AUC (COV362_OVARY): 1.112
- MFI COV362_OVARY (COV362_OVARY, pert_dose 6.10E-04): 17061 and 16771 and 18006 and 14276 and 17716.5
- AUC (COV434_OVARY): 0.499
- MFI COV434_OVARY (COV434_OVARY, pert_dose 6.10E-04): 2287 and 4116 and 4254.5 and 3247 and 3013
- AUC (DANG_PANCREAS): 1.183
- MFI DANG_PANCREAS (DANG_PANCREAS, pert_dose 6.10E-04): 3936.5 and 2389 and 3329.5 and 4098 and 2374
- AUC (DAOY_CENTRAL_NERVOUS_SYSTEM): 1.063
- MFI DAOY_CENTRAL_NERVOUS_SYSTEM (DAOY_CENTRAL_NERVOUS_SYSTEM, pert_dose 6.10E-04): 3341 and 3770 and 5391 and 3660 and 5169
- AUC (DBTRG05MG_CENTRAL_NERVOUS_SYSTEM): 0.8565
- MFI DBTRG05MG_CENTRAL_NERVOUS_SYSTEM (DBTRG05MG_CENTRAL_NERVOUS_SYSTEM, pert_dose 6.10E-04): 9502 and 12025.5 and 11037.5 and 11248 and 13043
- AUC (DETROIT562_UPPER_AERODIGESTIVE_TRACT): 1.165
- MFI DETROIT562_UPPER_AERODIGESTIVE_TRACT (DETROIT562_UPPER_AERODIGESTIVE_TRACT, pert_dose 6.10E-04): 11765 and 10497.5 and 16246.5 and 13989 and 13619
- AUC (DKMG_CENTRAL_NERVOUS_SYSTEM): 0.8274
- AUC (DMS273_LUNG): 1.073
- MFI DMS273_LUNG (DMS273_LUNG, pert_dose 6.10E-04): 11114.5 and 10196.5 and 9771 and 10022 and 13797
- AUC (DU145_PROSTATE): 1.079
- MFI DU145_PROSTATE (DU145_PROSTATE, pert_dose 6.10E-04): 21126.5 and 23687 and 17071 and 16938.5 and 18848
- AUC (DV90_LUNG): 0.8353
- MFI DV90_LUNG (DV90_LUNG, pert_dose 6.10E-04): 7893 and 6981 and 9620.5 and 7167 and 6096.5
- ∆ (AUC, TP53 mutation vs WT; decreased sensitivity) (DepMap TP53 mutation annotation): 0.0919
- AUC (EBC1_LUNG): 1.0742
- MFI EBC1_LUNG (EBC1_LUNG, pert_dose 6.10E-04): 12931 and 11768 and 13134.5 and 11101.5 and 10612
- AUC (ECGI10_OESOPHAGUS): 1.177
- AUC (EFM192A_BREAST): 1.203
- AUC (EFO21_OVARY): 1.106
- MFI EFO21_OVARY (EFO21_OVARY, pert_dose 6.10E-04): 6907 and 7302 and 6854 and 7260 and 4429
- AUC (EFO27_OVARY): 1.1574
- MFI EFO27_OVARY (EFO27_OVARY, pert_dose 6.10E-04): 9100.5 and 10537 and 7873 and 14276 and 9706
- AUC (EN_ENDOMETRIUM): 1.075
- AUC (ES2_OVARY): 1.089
- MFI ES2_OVARY (ES2_OVARY, pert_dose 6.10E-04): 18459 and 23432 and 12997.5 and 16216 and 13403
- AUC (ESS1_ENDOMETRIUM): 1.129
- MFI ESS1_ENDOMETRIUM (ESS1_ENDOMETRIUM, pert_dose 6.10E-04): 2916 and 2399 and 2841.5 and 2277 and 1505
- AUC (EWS502_BONE): 1.109
- MFI EWS502_BONE (EWS502_BONE, pert_dose 6.10E-04): 3099 and 3510.5 and 2209 and 3124 and 3278.5
- AUC (FADU_UPPER_AERODIGESTIVE_TRACT): 1.169
- MFI FADU_UPPER_AERODIGESTIVE_TRACT (FADU_UPPER_AERODIGESTIVE_TRACT, pert_dose 6.10E-04): 3959.5 and 4203 and 5203 and 4740.5 and 7313
- AUC (FTC133_THYROID): 1.156

— article PMC7093416, “Selective USP7 inhibition elicits cancer cell killing through a p53-dependent mechanism” (Scientific Reports, 2020)
